We go through two compounds from patent US4524077A, “Liquid 2-hydroxy-4-methylthiobutyric acid and process for the preparation thereof” (priority 1983, dated 1985).

The nature of data set [1]: Extraction of diluted HCl hydrolyzate at 70° C. (Table VIII). It counts as physicochemical. The conditions noted are these: HMBA extract/raffinate, HCl hydrolyzate diluted 100:40 with water. The text has this: The phases were separated and analyzed for HMBA.
This work up and extraction was repeated for 1-butanol.

Data set [2] can be described thus: Gardner color of HMBA product. It counts as physicochemical.
From the text: This product has a total HMBA content, including monomer, dimers, and oligomers, of between about 80% and about 95% by weight, preferably 85% to 90% by weight, and a water content of between about 5% and about 20%, preferably between 10% and about 15% by weight. […] The ratio of the weight proportion of HMBA monomer to the weight proportion of the sum of dimers and other oligomers thereof is at least about 2.8, preferably at least about 5.7.

Molecules are shown by their SMILES.

As for `CC(=O)CC(C)C` [Methyl isobutyl ketone], the “Distribution Coefficient” value in data set [1] came out at 2.4.
Take `CSCCC(O)C(=O)O` (racemic) [HMBA, 2-hydroxy-4-methylthiobutyric acid]: the Gardner color in data set [2] (88% by weight solution in water, Example 1, first method (methyl propyl ketone and water extraction)) is recorded as 5; in data set [2] (Example 13, bottom product, 88.9% HMBA), 4. Further, in data set [2] (Example 6, Product), the “Color (Gardner)” value was 3.
